# From patent publication US20070249673A1, “Method for administering tolperisone” (priority 2006, published 2007)
# Test: Pharmacokinetic profile of tolperisone after single and multi-dosing (150 mg regimen over 7 days) in healthy subjects under fasted and fed conditions
# Settings: for AUC(0-t) / AUC(inf) / Cmax / t½ / λz / AUC(0-6): mean ± SD; for Tmax: median
# [1] = Day 1 - 0800 Dose, Fasted, Females
# [2] = Day 1 - 0800 Dose, Fasted, Males
# [3] = Day 1 - 0800 Dose, Fasted, both sexes
# [4] = Day 1 - 0800 Dose, Fed, Females
# [5] = Day 1 - 0800 Dose, Fed, both sexes
# [6] = Day 1, fed vs fasted, both sexes
# [7] = Day 2 - 2200 Dose, Fasted, Females
# [8] = Day 2 - 2200 Dose, Fasted, Males
# [9] = Day 2 - 2200 Dose, Fasted, both sexes
# [10] = Day 2 - 2200 Dose, Fed, Females
# [11] = Day 2 - 2200 Dose, Fed, both sexes
# [12] = Day 7 - 0800 Dose, Fasted, Females
# [13] = Day 7 - 0800 Dose, Fasted, Males
# [14] = Day 7 - 0800 Dose, Fasted, both sexes
# [15] = Day 7 - 0800 Dose, Fed, Females
# [16] = Day 7 - 0800 Dose, Fed, both sexes
# [17] = Day 7 - 2200 Dose, Fasted, Females
# [18] = Day 7 - 2200 Dose, Fasted, Males
# [19] = Day 7 - 2200 Dose, Fasted, both sexes
# [20] = Day 7 - 2200 Dose, Fed, Females
# [21] = Day 7 - 2200 Dose, Fed, both sexes
# Protocol: Dosing Regimen: Subjects in each cohort received tolperisone according to the following regimen.
# Blood samples for the measurement of the plasma concentrations of tolperisone and metabolites M1 (4-hydroxymethyltolperisone) and M4 (4-carboxy-tolperisone) were collected at the times shown in Table 8.
# Bioanalytical: Plasma concentrations of tolperisone and metabolites M1 and M4 were measured using a validated LC/MS/MS assay by Pharm-analyt Laboratory, Baden Austria. The limits of quantitation (LOQ) for tolperisone, Mi, and M4 in plasma were 0.2 ng/ML, and 0.01 μg/mL, respectively.
# Pharmacokinetic Analyses: Pharmacokinetic parameters for tolperisone, M1, and M4 were calculated using non-compartmental analysis. Only plasma concentrations greater than or equal to the LOQ for the respective assay were used in the pharmacokinetic analyses. Actual blood sampling times were used in all pharmacokinetic analyses. […] All pharmacokinetic calculations were done using SAS® for Windows® Version 9.1.3.
# The maximum plasma concentration (Cmax) and time to Cmax (Tmax) were taken directly from the data. The elimination rate constant, λz, was calculated as the negative of the slope of the terminal log-linear segment of the plasma concentration-time curve. The range of data to be used for each subject and treatment was determined by visual inspection of a semi-logarithmic plot of concentration versus time. Elimination half-life (t½) was calculated according to the following equation: [formula] Area under the curve to the final sample with a concentration greater than or equal to the LOQ [(AUC(0-t)] was calculated using the linear trapezoidal method and extrapolated to infinity [AUC(inf)] using: [formula] where Ctf is the final concentration≧LOQ.
# The maximum plasma concentration (Cmax) and time to Cmax (Tmax) were taken directly from the data.
# The maximum plasma concentration (Cmax) and time to Cmax (Tmax) were taken directly from the data. The elimination rate constant, λz, and half-life, t½, were calculated as described for the 0800 dose on Day 1 (above). Areas under the curve to the final sample with a concentration greater than or equal to the LOQ [(AUC(O-t)] and over the 6-hour dosing interval [AUC(0-6)] were calculated using the linear trapezoidal method.
compound,measurement,setting,value
"CC(CN1CCCCC1)C(=O)c1ccc(C(=O)O)cc1 (racemic) [Metabolite M4, 4-carboxy-tolperisone]",AUC(0-t),[1],2.79 ± 0.37 (3) h · μg/mL
same,AUC(inf),[1],2.86 ± 0.40 (3) h · μg/mL
same,Cmax,[1],1.31 ± 0.05 (3) μg/mL
same,t½,[1],0.99 ± 0.04 (3) h
same,λz,[1],0.6981 ± 0.0253 (3) h^−1
same,Tmax,[1],1.00 (3) h
same,AUC(0-t),[2],2.26 ± 0.42 (7) h · μg/mL
same,AUC(inf),[2],2.34 ± 0.44 (7) h · μg/mL
same,Cmax,[2],1.31 ± 0.44 (7) μg/mL
same,t½,[2],1.10 ± 0.08 (7) h
same,λz,[2],0.6321 ± 0.0488 (7) h^−1
same,Tmax,[2],0.75 (7) h
same,AUC(0-t),[3],2.42 ± 0.46 (10) h · μg/mL
same,AUC(inf),[3],2.49 ± 0.48 (10) h · μg/mL
same,Cmax,[3],1.31 ± 0.36 (10) μg/mL
same,t½,[3],1.07 ± 0.088 (10) h
same,λz,[3],0.6519 ± 0.0524 (10) h^−1
same,Tmax,[3],0.88 (10) h
same,AUC(0-t),[4],2.74 ± 0.74 (4) h · μg/mL
same,AUC(inf),[4],2.94 ± 0.84 (4) h · μg/mL
same,Cmax,[4],1.02 ± 0.18 (4) μg/mL
same,t½,[4],1.16 ± 0.21 (4) h
same,λz,[4],0.6189 ± 0.1389 (4) h^−1
same,Tmax,[4],2.00 (4) h
same,AUC(0-t),"Day 1 - 0800 Dose, Fed, Males",2.32 ± 0.70 (6) h · μg/mL
same,AUC(inf),"Day 1 - 0800 Dose, Fed, Males",2.43 ± 0.76 (6) h · μg/mL
same,Cmax,"Day 1 - 0800 Dose, Fed, Males",1.27 ± 0.45 (6) μg/mL
same,t½,"Day 1 - 0800 Dose, Fed, Males",1.17 ± 0.19 (6) h
same,λz,"Day 1 - 0800 Dose, Fed, Males",0.6047 ± 0.0938 (6) h^−1
same,Tmax,"Day 1 - 0800 Dose, Fed, Males",0.88 (6) h
same,AUC(0-t),[5],2.49 ± 0.70 (10) h · μg/mL
same,AUC(inf),[5],2.64 ± 0.79 (10) h · μg/mL
same,Cmax,[5],1.17 ± 0.38 (10) μg/mL
same,t½,[5],1.16 ± 0.19 (10) h
same,λz,[5],0.6104 ± 0.1067 (10) h^−1
same,Tmax,[5],1.50 (10) h
same,decrease in the mean value for Cmax on administration with food,[6],11%
same,increase in the mean value for AUC(inf) on administration with food,[6],6%
same,Cmax,[7],0.96 ± 0.48 (3) μg/mL
same,Tmax,[7],1.00 (3) h
same,Cmax,[8],0.53 ± 0.32 (7) μg/mL
same,Tmax,[8],1.50 (7) h
same,Cmax,[9],0.66 ± 0.40 (10) μg/mL
same,Tmax,[9],1.25 (10) h
same,Cmax,[10],0.82 ± 0.41 (4) μg/mL
same,Tmax,[10],1.25 (4) h
same,Cmax,"Day 2 - 2200 Dose, Fed, Males",0.75 ± 0.42 (6) μg/mL
same,Tmax,"Day 2 - 2200 Dose, Fed, Males",1.00 (6) h
same,Cmax,[11],0.78 ± 0.40 (10) μg/mL
same,Tmax,[11],1.00 (10) h
same,mean AUC(0-6) under fed conditions lower than fasted,"Day 7, 0800 dose, both sexes",3%
same,mean Cmax under fed conditions lower than fasted,"Day 7, 0800 dose, both sexes",28%
same,AUC(0-6),[12],2.86 ± 0.42 (3) h · μg/mL
same,Cmax,[12],1.57 ± 0.25 (3) μg/mL
same,t½,[12],1.12 ± 0.08 (3) h
same,λz,[12],0.6226 ± 0.0416 (3) h^−1
same,Tmax,[12],0.75 (3) h
same,AUC(0-6),[13],2.06 ± 0.39 (7) h · μg/mL
same,Cmax,[13],1.04 ± 0.32 (7) μg/mL
same,t½,[13],1.20 ± 0.07 (7) h
same,λz,[13],0.5809 ± 0.0358 (7) h^−1
same,Tmax,[13],0.75 (7) h
same,AUC(0-6),[14],2.30 ± 0.54 (10) h · μg/mL
same,Cmax,[14],1.19 ± 0.38 (10) μg/mL
same,t½,[14],1.17 ± 0.081 (10) h
same,λz,[14],0.5934 ± 0.0406 (10) h^−1
same,Tmax,[14],0.75 (10) h
same,AUC(0-6),[15],2.31 ± 0.39 (4) h · μg/mL
same,Cmax,[15],0.95 ± 0.45 (4) μg/mL
same,t½,[15],1.10 ± 0.20 (3) h
same,λz,[15],0.6452 ± 0.1199 (3) h^−1
same,Tmax,[15],2.00 (4) h
same,AUC(0-6),"Day 7 - 0800 Dose, Fed, Males",2.17 ± 0.57 (6) h · μg/mL
same,Cmax,"Day 7 - 0800 Dose, Fed, Males",0.80 ± 0.24 (6) μg/mL
same,t½,"Day 7 - 0800 Dose, Fed, Males",1.21 ± 0.30 (6) h
same,λz,"Day 7 - 0800 Dose, Fed, Males",0.5978 ± 0.1116 (6) h^−1
same,Tmax,"Day 7 - 0800 Dose, Fed, Males",1.75 (6) h
same,AUC(0-6),[16],2.23 ± 0.49 (10) h · μg/mL
same,Cmax,[16],0.86 ± 0.32 (10) μg/mL
same,t½,[16],1.17 ± 0.26 (09) h
same,λz,[16],0.6136 ± 0.1092 (09) h^−1
same,Tmax,[16],2.00 (10) h
same,Cmax,[17],1.40 ± 0.21 (3) μg/mL
same,Tmax,[17],1.50 (3) h
same,Cmax,[18],0.844 ± 0.243 (7) μg/mL
same,Tmax,[18],1.03 (7) h
same,Cmax,[19],1.01 ± 0.35 (10) μg/mL
same,Tmax,[19],1.27 (10) h
same,Cmax,[20],0.99 ± 0.25 (4) μg/mL
same,Tmax,[20],1.25 (4) h
same,Cmax,"Day 7 - 2200 Dose, Fed, Males",0.94 ± 0.25 (6) μg/mL
same,Tmax,"Day 7 - 2200 Dose, Fed, Males",1.04 (6) h
same,Cmax,[21],0.96 ± 0.24 (10) μg/mL
same,Tmax,[21],1.04 (10) h
same,accumulation (increase in Cmax over the seven days of dosing),"seven days of dosing, up to 150 mg three times daily",little or no accumulation
same,mean elimination half-life,"summary, not dependent on sex, food or duration of dosing",~1.1 h
